From patent publication US8283465B2, “Triazolopyridine compound, and action thereof as prolyl hydroxylase inhibitor or erythropoietin production-inducing agent” (Japan Tobacco Inc., priority 2009, dated 2012)
Where a name gives a salt, the structure may show the parent alone.

How the values were obtained:
human PHD2 = biological target: T1, human PHD2 (Homo sapiens, UniProt Q9GZT9); assay: Measurement of human PHD inhibitory activity (TR-FRET, hydroxylation of HIF-1α partial peptide); assay type: biochemical; details: for IC50: human PHD2 enzyme 1 nM, 25° C. 30 min, values consisting solely of numbers, read-out: IC50 (μM) in vitro, human PHD inhibitory activity
T1 construct: made in house; host or cells: Sf9 insect cells (baculovirus, pVL1393 vector)
T1 sequence (Q9GZT9 whole entry): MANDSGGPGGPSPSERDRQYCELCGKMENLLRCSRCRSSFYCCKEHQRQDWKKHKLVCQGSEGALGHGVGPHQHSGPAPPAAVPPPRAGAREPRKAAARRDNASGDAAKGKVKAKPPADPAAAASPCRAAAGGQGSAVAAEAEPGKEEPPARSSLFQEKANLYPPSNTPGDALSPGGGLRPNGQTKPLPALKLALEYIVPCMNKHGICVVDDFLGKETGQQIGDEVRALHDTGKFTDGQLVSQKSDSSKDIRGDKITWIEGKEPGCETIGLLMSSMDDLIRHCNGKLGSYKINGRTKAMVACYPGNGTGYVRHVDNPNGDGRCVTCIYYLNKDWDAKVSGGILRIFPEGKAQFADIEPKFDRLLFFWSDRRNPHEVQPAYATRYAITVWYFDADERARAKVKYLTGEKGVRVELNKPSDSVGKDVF
Procedure: Human PHD2 was expressed in insect cell (Sf9 cell). […] The vector and baculovirus were cotransfected into Sf9, and human PHD2 expression baculovirus was isolated in Sf9. By using the virus, human PHD2-expressed cell was prepared. […] The cell lysate was flowed into a column filled with ANTI-FLAG M2 Affinity Gel Freezer Safe (SIGMA), washed, and the N-terminal FLAG-tag-added human PHD2 was eluted and collected.
VBC complex (VHL/Elongin B/Elongin C) was expressed in Escherichia coli (BL21(DE3)). […] After these expression vectors were transfected into Escherichia coli (BL21(DE3)), Escherichia coli was cultured at 37° C. in the medium containing IPTG. The collected Escherichia coli was disrupted by sonication and flowed into a column filled with Ni-NTA superflow (QIAGEN), washed, and the product was eluted and collected. The eluate was flowed into a column filled with Glutathione Sepharose 4B, washed, and the product was eluted and collected. […]
As for human PHD2 enzyme activity, hydroxylation of proline residue contained in the 19 residues of the partial peptide based on the sequence of HIF-1α as a substrate was measured by TR-FRET (Time-Resolved Fluorescence Resonance Energy Transfer) method.
A test compound and a substrate solution were added to a 96-well plate. The reaction was started by addition of a human PHD2 enzyme solution (final concentration 1 nM) to the reaction system. After incubation at 25° C. for 30 min, a stop solution containing EDTA was added, and a VBC complex solution containing europium (Eu) and Xlent was added, and the amount of hydroxylated proline residue was quantified by time-resolved fluorescence spectroscopy. The time-resolved fluorescence in each well was measured, and the human PHD inhibitory activity (%) of the test compound was calculated based on the values of enzyme non-addition well and test compound non-addition well.

[1] = system: human EPO production, Hep3B cells; assay: Human EPO production activity in Hep3B cells (EPO-ELISA of culture supernatant); assay type: cell-based; details: for EC50: Homo sapiens, 24 hr incubation, values consisting solely of numbers, read-out: EC50 (μM) in vitro, human EPO production activity; for production activity (%) at 30 μM in vitro, human EPO: 24 hr, values containing %, relative to maximum production
Procedure: The activity of the test compound on human EPO production was measured using Hep3B (AMC) established from human liver-derived cell line.
Hep3B cells were cultured in Eagle-MEM medium containing 10% fetal bovine serum, and the test compound was diluted with dimethyl sulfoxide (DMSO).
Hep3B cells were cultured in a 96-well plate, and a test compound was added at each concentration 24 hr later. After incubation at 37° C. for 24 hr, the culture supernatant was collected. The concentration of human EPO produced in the culture supernatant was measured using a human EPO-ELISA kit (manufactured by StemCell Technologies, 01630) according to the manufacturer's explanation, and the human EPO production activity (%) of the test compound was calculated based on the maximum value of production under the above conditions and the value without addition of the test compound. […] In these Tables, the values consisting solely of numbers show EC50 (μM) and those containing % show human EPO production activity (%) at […].

Row | Compound | IC50 (human PHD2) | EC50 [1] | inhibition at 30 µM (human PHD2; at 30 μM, values containing %, read-out: inhibitory activity (%) at 30 μM in vitro, human PHD) | production activity (%) at 30 μM in vitro, human EPO [1]
1 | CCC(CC)Cc1cc(O)c(C(=O)NCC(=O)O)c2ncnn12 [Example 45, {[5-(2-ethylbutyl)-7-hydroxy[1,2,4]triazolo[1,5-a]pyridine-8-carbonyl]amino}acetic acid hydrochloride] | 0.92 µM | 9.9 µM | – | –
2 | O=C(O)CNC(=O)c1c(O)cc(-c2cc(Cl)cc(Cl)c2)n2ncnc12 [Example 46, {[5-(3,5-dichlorophenyl)-7-hydroxy[1,2,4]triazolo[1,5-a]pyridine-8-carbonyl]amino}acetic acid hydrochloride] | 0.29 µM | 4.8 µM | – | –
3 | O=C(O)CNC(=O)c1c(O)cc(CCC2CC2)n2ncnc12 [Example 47, {[5-(2-cyclopropylethyl)-7-hydroxy[1,2,4]triazolo[1,5-a]pyridine-8-carbonyl]amino}acetic acid hydrochloride] | 0.56 µM | 12 µM | – | –
4 | CCC(C)(C)CCc1cc(O)c(C(=O)NCC(=O)O)c2ncnn12 [Example 48, hydrochloride] | 0.59 µM | 4.5 µM | – | –
5 | O=C(O)CNC(=O)c1c(O)cc(-c2cc(F)c(F)c(F)c2)n2ncnc12 [Example 49, {[7-hydroxy-5-(3,4,5-trifluorophenyl)[1,2,4]triazolo[1,5-a]pyridine-8-carbonyl]amino}acetic acid hydrochloride] | 0.24 µM | 11.7 µM | – | –
6 | O=C(O)CNC(=O)c1c(O)cc(-c2ccc(Cl)cc2)n2ncnc12 [Example 50, {[5-(4-chlorophenyl)-7-hydroxy[1,2,4]triazolo[1,5-a]pyridine-8-carbonyl]amino}acetic acid hydrochloride] | 0.18 µM | 5.6 µM | – | –
7 | Cc1cccc(-c2cc(O)c(C(=O)NCC(=O)O)c3ncnn23)c1 [Example 51, [(7-hydroxy-5-(m-tolyl)[1,2,4]triazolo[1,5-a]pyridine-8-carbonyl)amino] acetic acid hydrochloride] | 0.26 µM | 9.1 µM | – | –
8 | O=C(O)CNC(=O)c1c(O)cc(-c2cc(F)cc(C3CC3)c2)n2ncnc12 [Example 52, {[5-(3-cyclopropyl-5-fluorophenyl)-7-hydroxy[1,2,4]triazolo[1,5-a]pyridine-8-carbonyl]amino} acetic acid hydrochloride] | 0.89 µM | 10.4 µM | – | –
9 | O=C(O)CNC(=O)c1c(O)cc(CC2CCC2)n2ncnc12 [Example 53, [(5-cyclobutylmethyl-7-hydroxy[1,2,4]triazolo[1,5-a]pyridine-8-carbonyl)amino] acetic acid hydrochloride] | 0.5 µM | 8.9 µM | – | –
10 | O=C(O)CNC(=O)c1c(O)cc(CCC2CCC2)n2ncnc12 [Example 54, {[5-(2-cyclobutylethyl)-7-hydroxy[1,2,4]triazolo[1,5-a]pyridine-8-carbonyl]amino} acetic acid hydrochloride] | 0.44 µM | 4.5 µM | – | –
11 | O=C(O)CNC(=O)c1c(O)cc(-c2cccc(C(F)(F)F)c2F)n2ncnc12 [Example 55, {[5-(2-fluoro-3-trifluoromethyl-phenyl)-7-hydroxy[1,2,4]triazolo[1,5-a]pyridine-8-carbonyl]amino} acetic acid hydrochloride] | 0.23 µM | 8.9 µM | – | –
12 | O=C(O)CNC(=O)c1c(O)cc(-c2cccc(Cl)c2F)n2ncnc12 [Example 56, {[5-(3-chloro-2-fluorophenyl)-7-hydroxy[1,2,4]triazolo[1,5-a]pyridine-8-carbonyl]amino} acetic acid hydrochloride] | 0.19 µM | 8.4 µM | – | –
13 | O=C(O)CNC(=O)c1c(O)cc(-c2ccc(C(F)(F)F)cc2)n2ncnc12 [Example 57, {[7-hydroxy-5-(4-trifluoromethyl-phenyl)[1,2,4]triazolo[1,5-a]pyridine-8-carbonyl]amino} acetic acid hydrochloride] | 0.2 µM | 4.7 µM | – | –
14 | O=C(O)CNC(=O)c1c(O)cc(C2CCCCCC2)n2ncnc12 [Example 58, [(5-cycloheptyl-7-hydroxy[1,2,4]triazolo[1,5-a]pyridine-8-carbonyl)amino] acetic acid hydrochloride] | 0.55 µM | 4.7 µM | – | –
15 | O=C(O)CNC(=O)c1c(O)cc(-c2cccc(F)c2F)n2ncnc12 [Example 59, {[5-(2,3-difluorophenyl)-7-hydroxy[1,2,4]triazolo[1,5-a]pyridine-8-carbonyl]amino} acetic acid hydrochloride] | 0.26 µM | – | – | 49%

Further lines, with some results ahead:

Row | IC50 (human PHD2) | EC50 [1] | inhibition at 30 µM (human PHD2; at 30 μM, values containing %, read-out: inhibitory activity (%) at 30 μM in vitro, human PHD) | Compound | production activity (%) at 30 μM in vitro, human EPO [1]
16 | 0.74 µM | 8.4 µM | – | O=C(O)CNC(=O)c1c(O)cc(CCC2CCCC2)n2ncnc12 [Example 60, {[5-(2-cyclopentylethyl)-7-hydroxy[1,2,4]triazolo[1,5-a]pyridine-8-carbonyl]amino} acetic acid hydrochloride] | –
17 | 0.22 µM | 28.8 µM | – | O=C(O)CNC(=O)c1c(O)cc(-c2ccccc2F)n2ncnc12 [Example 61, {[5-(2-fluorophenyl)-7-hydroxy[1,2,4]triazolo[1,5-a]pyridine-8-carbonyl]amino} acetic acid hydrochloride] | –
18 | 0.28 µM | 10.1 µM | – | O=C(O)CNC(=O)c1c(O)cc(-c2ccc(Cl)cc2F)n2ncnc12 [Example 62, {[5-(4-chloro-2-fluorophenyl)-7-hydroxy[1,2,4]triazolo[1,5-a]pyridine-8-carbonyl]amino} acetic acid hydrochloride] | –
19 | 0.36 µM | 19.7 µM | – | O=C(O)CNC(=O)c1c(O)cc(Cc2ccc(F)cc2)n2ncnc12 [Example 63, acetic acid hydrochloride] | –
20 | 6.88 µM | – | – | C[C@@H](NC(=O)c1c(O)cc(-c2cc(F)cc(F)c2)n2ncnc12)C(=O)O [Example 64, (R)-2-{[5-(3,5-difluorophenyl)-7-hydroxy[1,2,4]triazolo[1,5-a]pyridine-8-carbonyl]amino} propionic acid hydrochloride] | 0%
21 | 1.5 µM | 21.1 µM | – | CC(NC(=O)c1c(O)cc(-c2cc(F)cc(F)c2)n2ncnc12)C(=O)O (stereo not drawn) [Example 66, 2-{[5-(3,5-difluorophenyl)-7-hydroxy-[1,2,4]triazolo [1,5-a]pyridine-8-carbonyl]amino} propionic acid hydrochloride] | –
22 | 0.9 µM | 14.3 µM | – | C[C@H](NC(=O)c1c(O)cc(-c2cc(F)cc(F)c2)n2ncnc12)C(=O)O [Example 67, (S)-2-{[5-(3,5-difluorophenyl)-7-hydroxy[1,2,4]triazolo[1,5-a]pyridine-8-carbonyl]amino} propionic acid hydrochloride] | –
23 | 5.94 µM | – | – | CC(C)(NC(=O)c1c(O)cc(-c2cc(F)cc(F)c2)n2ncnc12)C(=O)O [Example 68, 2-{[5-(3,5-difluorophenyl)-7-hydroxy[1,2,4]triazolo[1,5-a]pyridine-8-carbonyl]amino}-2-methylpropionic acid hydrochloride] | 0%
24 | 1.62 µM | 12 µM | – | C[C@H](NC(=O)c1c(O)cc(CCc2ccccc2)n2ncnc12)C(=O)O [Example 69, (S)-2-[(7-hydroxy-5-phenethyl[1,2,4]triazolo[1,5-a]pyridine-8-carbonyl)amino] propionic acid hydrochloride] | –
25 | – | – | 38% | C[C@@H](NC(=O)c1c(O)cc(CCc2ccccc2)n2ncnc12)C(=O)O [Example 70, (R)-2-[(7-hydroxy-5-phenethyl[1,2,4]triazolo[1,5-a]pyridine-8-carbonyl)amino] propionic acid hydrochloride] | 1%
26 | 0.4 µM | 4 µM | – | Cc1ccc(-c2cc(O)c(C(=O)NCC(=O)O)c3ncnn23)s1 [Example 72, {[7-hydroxy-5-(5-methylthiophen-2-yl) [1,2,4]triazolo[1,5-a]pyridine-8-carbonyl]amino} acetic acid hydrochloride] | –
27 | 7.09 µM | – | – | CCCCCCc1cc(O)c(C(=O)NCC(=O)O)c2ncnn12.Cl [Example 73, [(5-hexyl-7-hydroxy[1,2,4]triazolo[1,5-a]pyridine-8-carbonyl)amino] acetic acid hydrochloride] | 34%
